# In patent US9708275B2, “Heterocyclic compounds and methods for their use” (Novartis AG, priority 2012, dated 2017):
# Biological target: AT2 receptor (Homo sapiens (Human), UniProt P50052)
# Assay: AT2 receptor binding assay ([125I]-CGP42112A, HEK293/AT2 receptor cell membranes)
# Conditions: displacement of [125I]-CGP42112A, RT 1.5 hrs
# Description: 1. Trypsin-EDTA (for preparation of 100 mL) • Trypsin 0.25 g • 2% EDTA 2 mL • PBS 98 mL • Dissolve trypsin in 2% EDTA and PBS completely; sterilize the solution by passing through a […] membrane filter; store at 4° C.
# 2. DMEM medium (for preparation of 1 L) • The powder was dissolved into 950 mL of distilled water with gentle stirring until the solution becomes clear. • Add NaHCO3 1.176 g for DMEM medium. • Adjust pH of medium to 0.2-0.3 below final working pH using 1 M NaOH or 1 M HCl. Add slowly with stirring. • Dilute to 1 liter with ddH2O. • Sterilize the medium immediately by filtration. • Store at 4° C.
# 3. TE buffer • 20 mM Tris-HCl, pH 7.4, • 5 mM EDTA
# 4. Binding Assay Buffer • 50 mM Hepes, pH 7.4 • 5 mM MgCl2 • 1 mM CaCl2 • 0.2% BSA
# 5. Wash Buffer • 50 mM Hepes, pH 7.4 Procedures for HEK293/AT2 Receptor Transient Cell Transfection • Cells were plated into 150 mm dish at 50% density for transient transfection. Cells were ready for transfection after overnight incubation (the confluence reaches around 80%). • 75 μL Lipofectamine™2000 diluted in 6.25 mL OptiMEM I Reduced Serum Medium, was mixed gently, and incubated at room temperature for 5 minutes. 50 μg expression plasmid DNA diluted in 6.25 mL OptiMEM I Reduced Serum Medium without serum was mixed gently. • After the 5 minute incubation, the diluted DNA was combined with the diluted Lipofectamine™2000 (total volume is 12.5 mL). The mixture was mixed gently and incubated for 30 minutes at room temperature to allow the DNA-Lipofectamine™2000 complexes to form. • The 12.5 mL DNA-Lipofectamine™2000 complexes were added into the 150 mm dish and mixed gently by rocking the dish back and forth. • The cells were incubated at 37° C. with 5% CO2 for 48 hours. • Cells were collected and stored frozen at −80° C. Procedures for HEK293/AT2 Receptor Cell Membrane Preparation • Frozen HEK293/AT2 receptor (transient transfected) cells were homogenized in ice cold TE buffer for 10 s. • The homogenate was centrifuged at 25,000 g for 30 minutes. • The pellet was resuspended in ice cold tissue buffer. • Protein concentrations were determined using Bradford assay method with BSA as standard. • The membrane protein was frozen under −80° C. Compound Preparation
# Solutions of all compounds were prepared by microplate liquid handling equipment such as Janus or Precision 2000. Compounds, dissolved in DMSO were stored in a Freezer. Compounds were prepared from 30 mM in 100% DMSO.
# Step 1: Dose plate preparation (96 well plate)
# • Add the 3 μL [30 mM] compound stock to column 1 on the plate. • Add 15 μL of 100% DMSO to column 1. • Add 10.81 μL of 100% DMSO to column 2-12. • Transfer 5 μL from column 1 into column 2 (half log dilution). • Transfer 5 μL from column 2 into column 3 (half log dilution). • Transfer 5 μL from column 3 into column 4 (half log dilution). • Transfer 5 μL from column 4 into column 5 (half log dilution). • Transfer 5 μL from column 5 into column 6 (half log dilution). • Transfer 5 μL from column 6 into column 7 (half log dilution). • Transfer 5 μL from column 7 into column 8 (half log dilution). • Transfer 5 μL from column 8 into column 9 (half log dilution). • Transfer 5 μL from column 9 into column 10 (half log dilution) • Transfer 5 μL from column 10 into column 11 (half log dilution) • Transfer 5 μL from column 11 into column 12 (half log dilution).
# All the compounds were diluted using Precision 2000 microplate liquid handling equipment. The top concentration of compound was 5 mM with 100% DMSO.
# Step 2: Working plate preparation (96 well plate)
# • Compounds were diluted 50-fold with buffer. • 49 μL buffer was added to the well of 96 well plate. • 1 μL compound solution from dose plate was transferred to the corresponding well of working plate. • The top concentration of compound was 100 μM with 2% DMSO. Step 3: Assay plate preparation (96 well plate)
# 15 μL of compound solution was transferred from each well of working plate to the well of assay plate by Janus. […]
# AT2 receptor, sequence (P50052 whole entry, species assumed): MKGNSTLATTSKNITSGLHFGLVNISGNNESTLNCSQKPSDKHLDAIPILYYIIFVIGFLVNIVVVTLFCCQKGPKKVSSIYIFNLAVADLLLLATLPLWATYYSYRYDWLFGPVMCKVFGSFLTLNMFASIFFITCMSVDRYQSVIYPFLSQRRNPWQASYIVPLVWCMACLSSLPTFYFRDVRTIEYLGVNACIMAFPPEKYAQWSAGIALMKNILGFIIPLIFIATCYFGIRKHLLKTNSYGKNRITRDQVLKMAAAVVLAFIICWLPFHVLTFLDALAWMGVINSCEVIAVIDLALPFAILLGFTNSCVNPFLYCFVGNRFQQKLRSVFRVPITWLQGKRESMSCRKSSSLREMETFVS
row,IC50,SMILES
1,408 nM,"O=C(O)[C@@H]1CN(c2ccccc2)CCN1C(=O)C(c1ccccc1)c1ccccc1 [Compound 4, (S)-1-(2,2-diphenylacetyl)-4-phenylpiperazine-2-carboxylic acid]"
2,383 nM,"O=C(O)[C@@H]1CN(Cc2ccccc2)CCN1C(=O)C(c1ccccc1)c1ccccc1 [Compound 5, (S)-4-benzyl-1-(2,2-diphenylacetyl)piperazine-2-carboxylic acid]"
3,155 nM,"Cc1cc(N2CCN(C(=O)C(c3ccccc3)c3ccccc3)[C@H](C(=O)O)C2)n(-c2ccccc2)n1 [Compound 7, (3)-1-(2,2-diphenylacetyl)-4-(3-methyl-1-phenyl-1H-pyrazol-5-yl)piperazine-2-carboxylic acid]"
4,1270 nM,"O=C(O)[C@@H]1CN(CCc2ccccc2)CCN1C(=O)C(c1ccccc1)c1ccccc1 [Compound 8, (S)-1-(2,2-diphenylacetyl)-4-phenethylpiperazine-2-carboxylic acid]"

# Continued, molecule first:
row,SMILES,IC50
1,"O=C(O)[C@@H]1CN(c2cc(-c3ccccc3)n(-c3ccccc3)n2)CCN1C(=O)C(c1ccccc1)c1ccccc1 [Compound 6, (S)-4-(1,5-diphenyl-1H-pyrazol-3-yl)-1-(2,2-diphenylacetyl)-piperazine-2-carboxylic acid]",3040 nM
2,"O=C(O)[C@@H]1CN(C/C=C/c2ccccc2)CCN1C(=O)C(c1ccccc1)c1ccccc1 [Compound 9, (S)-4-cinnamyl-1-(2,2-diphenylacetyl)piperazine-2-carboxylic acid]",4100 nM
3,"O=C(O)[C@@H]1CN(CCCc2ccccc2)CCN1C(=O)C(c1ccccc1)c1ccccc1 [Compound 10, (S)-1-(2,2-diphenylacetyl)-4-(3-phenylpropyl)piperazine-2-carboxylic acid]",517 nM
4,"Cc1cc(N2CCN(C(=O)C(c3ccccc3)c3ccccc3)[C@H](C(=O)O)C2)n(Cc2ccccc2)n1 [Compound 16, (S)-4-(1-benzyl-3-methyl-1H-pyrazol-5-yl)-1-(2,2-diphenylacetyl)piperazine-2-carboxylic acid]",40.3 nM
5,"O=C(O)[C@@H]1CN(c2cc(C(F)(F)F)nn2Cc2ccccc2)CCN1C(=O)C(c1ccccc1)c1ccccc1 [Compound 23, (S)-4-(1-benzyl-3-(-trifluoromethyl)-1H-pyrazol-5-yl)-1-(2,2-diphenylacetyl)piperazine-2-carboxylic acid]",93.8 nM
6,"O=C(O)[C@@H]1CN(CC#Cc2ccccc2)CCN1C(=O)C(c1ccccc1)c1ccccc1 [Compound 24, (S)-1-(2,2-diphenylacetyl)-4-(3-phenylprop-2-yn-1-yl)piperazine-2-carboxylic acid]",4160 nM
7,"O=C(O)[C@@H]1CN(CCC#Cc2ccccc2)CCN1C(=O)C(c1ccccc1)c1ccccc1 [Compound 26, (S)-1-(2,2-diphenylacetyl)-4-(4-phenylbut-3-yn-1-yl)piperazine-2-carboxylic acid]",1320 nM
